Assay results reported in ChEMBL document CHEMBL5380777, “Efficacy, Mechanism, and Structure-Activity Relationship of 6-Methoxy Benzofuran Derivatives as a Useful Tool for Senile Osteoporosis” (J Med Chem, 2023).
The source made the active and inactive calls. The rule behind the calls is not given here.

Columns and labels:
Mus musculus [1] = assay: Anti osteoporosis in 16 months old C57 mouse assessed as reconstruction of bone microstructure administered at 30 mg/kg/day, IG continuously for 4 months by micro CT analysis relative to aged control group; format: functional, organism-based
Osteoclast = assay: Upregulation of BMP-2 expression in 16 months old C57 mouse osteoclast by scRNA-seq analysis; format: functional, cell-based
Mus musculus [2] = assay: Anti osteoporosis in 16 months old C57 mouse assessed as increase in bone mass in femur from proximal end to the distal end administered at 30 mg/kg/day, IG continuously for 2 to 4 months by micro CT analysis relative to aged control group; format: functional, organism-based; settings: time 2-4 months
Osteoblast [3] = assay: Upregulation of transcription factor JUND expression in 16 months old C57 mouse osteoblast by scRNA-seq analysis; format: functional, cell-based
[4] = Toxicity in 2.5 months old SAMP-6 rapid aging mouse model assessed as change in serum AST level administered at 30 mg/kg/day, IG continuously for 3 months; format: organism-based; settings: in vivo, po, 2190 h
Osteoblast [5] = assay: Regulation of osteogenesis in 16 months old C57 mouse osteoblast endoplasmic reticulum assessed as increase in Hsph1 gene by scRNA-seq analysis; format: functional, cell-based
[6] = Toxicity in 2.5 months old SAMP-6 rapid aging mouse model assessed as change in serum AST level administered at 30 mg/kg/day, IG continuously for 3 months in presence of ALN; format: organism-based; settings: in vivo, po, 2190 h
Osteoblast [7] = assay: Upregulation of transcription factor CSDE1 expression in 16 months old C57 mouse osteoblast by scRNA-seq analysis; format: functional, cell-based
Mus musculus [8] = assay: Anti osteoporosis in 16 months old C57 mouse assessed as osteoblast level in femur administered at 30 mg/kg/day, IG continuously for 4 months by scRNA-seq analysis (reference value: 5.05%); format: functional; settings: 2920 h
Mus musculus [9] = assay: Anti osteoporosis in 16 months old C57 mouse assessed as megakaryocyte level in femur administered at 30 mg/kg/day, IG continuously for 4 months by scRNA-seq analysis (reference value: 1%); format: functional; settings: 2920 h
Danio rerio = species on record: Danio rerio; assay: Anti osteoporosis activity in prednisone induced wildtype 3 days post-fertilization AB zebrafish osteoporosis model assessed as increase in bone fluorescence intensity (RVB = 13620 +/- 1692); format: functional
Mus musculus [10] = assay: Anti osteoporosis in 2.5 months old SAMP-6 rapid aging mouse model assessed as upregulation of serum BMP2 administered at 30 mg/kg/day, IG in presence of ALN continuously for 3 months […]; format: functional, organism-based
[11] = Toxicity in 2.5 months old SAMP-6 rapid aging mouse model assessed as change in serum ALT level administered at 30 mg/kg/day, IG continuously for 3 months in presence of ALN; format: organism-based; settings: in vivo, po, 2190 h
[12] = Toxicity in 16 months old C57 mouse assessed as change in triglyceride level administered at 30 mg/kg/day, IG continuously for 4 months; format: organism-based; settings: in vivo, po, 2920 h
Mus musculus [13] = assay: Anti osteoporosis in 16 months old C57 mouse assessed as myeloid progenitor level in femur administered at 30 mg/kg/day, IG continuously for 4 months by scRNA-seq analysis (reference value: 2.18%); format: functional; settings: 2920 h
[14] = Toxicity in 2.5 months old SAMP-6 rapid aging mouse model assessed as change in ALP level administered at 30 mg/kg/day, IG continuously for 3 months in presence of ALN; format: organism-based; settings: in vivo, po, 2190 h
Osteoblast [15] = assay: Regulation of osteogenesis in 16 months old C57 mouse osteoblast endoplasmic reticulum assessed as increase in Hsp90ab1 gene by scRNA-seq analysis; format: functional, cell-based
[16] = Toxicity in 2.5 months old SAMP-6 rapid aging mouse model assessed as change in urea level administered at 30 mg/kg/day, IG continuously for 3 months; format: organism-based; settings: in vivo, po, 2190 h
Mus musculus [17] = assay: Anti osteoporosis in 16 months old C57 mouse assessed as monocyte level in femur administered at 30 mg/kg/day, IG continuously for 4 months by scRNA-seq analysis (reference value: 12.2%); format: functional; settings: 2920 h
Mus musculus [18] = assay: Anti osteoporosis in 16 months old C57 mouse assessed as macrophage level in femur administered at 30 mg/kg/day, IG continuously for 4 months by scRNA-seq analysis (reference value: 1.88%); format: functional; settings: 2920 h
[19] = Toxicity in 2.5 months old SAMP-6 rapid aging mouse model assessed as change in triglyceride level administered at 30 mg/kg/day, IG continuously for 3 months; format: organism-based; settings: in vivo, po, 2190 h
Mus musculus [20] = assay: Anti osteoporosis in 16 months old C57 mouse assessed as reconstruction of bone microstructure administered at 30 mg/kg/day, IG continuously for 4 months by micro CT analysis relative to young control group; format: functional, organism-based
Osteoblast [21] = assay: Regulation of osteogenesis in 16 months old C57 mouse osteoblast endoplasmic reticulum assessed as increase in Atf4 gene by scRNA-seq analysis; format: functional, cell-based
Mus musculus [22] = assay: Anti osteoporosis in 16 months old C57 mouse assessed as T cell level in femur administered at 30 mg/kg/day, IG continuously for 4 months by scRNA-seq analysis (reference value: 10.54%); format: functional; settings: 2920 h
MC3T3-E1 = assay: Induction of ALP activity in mouse MC3T3-E1 cells in osteogenic differentiation culture at 1 uM measured on day 7; format: functional, cell-based; settings: time 7.0 day
[23] = Toxicity in 16 months old C57 mouse assessed as change in body weight administered at 30 mg/kg/day, IG continuously for 4 months relative to aged control group; format: organism-based; settings: in vivo, po, 2920 h
Mus musculus [24] = assay: Anti osteoporosis in 16 months old C57 mouse assessed as fold increase in osteoclast level in femur administered at 30 mg/kg/day, IG continuously for 4 months by scRNA-seq analysis relative to control; format: functional; settings: 2920 h
[25] = Toxicity in 2.5 months old SAMP-6 rapid aging mouse model assessed as change in creatinine level administered at 30 mg/kg/day, IG continuously for 3 months in presence of ALN; format: organism-based; settings: in vivo, po, 2190 h
Mus musculus [26] = assay: Anti osteoporosis in 16 months old C57 mouse assessed as increase in bone mass administered at 30 mg/kg/day, IG continuously for 2 months by micro CT analysis relative to young control group; format: functional, organism-based
[27] = Toxicity in 16 months old C57 mouse assessed as change in serum ALT level administered at 30 mg/kg/day, IG continuously for 4 months; format: organism-based; settings: in vivo, po, 2920 h
Osteocyte = assay: Upregulation of BMP-2 expression in 16 months old C57 mouse osteocytes by scRNA-seq analysis; format: functional, cell-based
Mus musculus [28] = assay: Anti osteoporosis in 2.5 months old SAMP-6 rapid aging mouse model assessed as increase in osteoblast formation administered at 30 mg/kg/day, IG continuously for 3 months; format: functional, organism-based
[29] = Toxicity in 2.5 months old SAMP-6 rapid aging mouse model assessed as morphological change in kidney administered at 30 mg/kg/day, IG continuously for 3 months by hematoxylin and eosin staining analysis; format: organism-based; settings: in vivo, po, 2190 h
Mus musculus [30] = assay: Anti osteoporosis in 16 months old C57 mouse assessed as granulocyte level in femur administered at 30 mg/kg/day, IG continuously for 4 months by scRNA-seq analysis (reference value: 28.33%); format: functional; settings: 2920 h
Osteoblast [31] = assay: Upregulation of transcription factor H1F0 expression in 16 months old C57 mouse osteoblast by scRNA-seq analysis; format: functional, cell-based
[32] = Toxicity in 2.5 months old SAMP-6 rapid aging mouse model assessed as morphological change in liver administered at 30 mg/kg/day, IG continuously for 3 months by hematoxylin and eosin staining analysis; format: organism-based; settings: in vivo, po, 2190 h

SMILES: COc1ccc2cc(C(=O)NCCN(C)C)oc2c1.CS(=O)(=O)O
- Activity (Mus musculus [1]): Active
- Activity (Osteoclast): Active
- Activity (Mus musculus [2]): Active
- Activity (Osteoblast [3]): Active
- Activity [4]: Non-Toxic
- Activity (Osteoblast [5]): Active
- Activity [6]: Non-Toxic
- Activity (Osteoblast [7]): Active
- Activity (Mus musculus [8]): 15.03%
- Activity (Mus musculus [9]): 0.78%
- Flu intensity (Danio rerio): 19181
- Activity (Mus musculus [10]): Active
- Activity [11]: Non-Toxic
- Activity [12]: Non-Toxic
- Activity (Mus musculus [13]): 0.32%
- Activity [14]: Non-Toxic
- Activity (Osteoblast [15]): Active
- Activity [16]: Non-Toxic
- Activity (Mus musculus [17]): 4.94%
- Activity (Mus musculus [18]): 1.33%
- Activity [19]: Non-Toxic
- Activity (Mus musculus [20]): Active
- Activity (Osteoblast [21]): Active
- Activity (Mus musculus [22]): 8.96%
- Activity (MC3T3-E1): Active
- Activity [23]: Non-Toxic
- fold change (FC) (Mus musculus [24]): 3
- Activity [25]: Non-Toxic
- Activity (Mus musculus [26]): inactive
- Activity [27]: Non-Toxic
- Activity (Osteocyte): Active
- Activity (Mus musculus [28]): Active
- Activity [29]: Non-Toxic
- Activity (Mus musculus [30]): 34.01%
- Activity (Osteoblast [31]): Active
- Activity [32]: Non-Toxic
